System: guinea pigs
Assay: Guinea pig systemic test: death of the treated guinea pig before blood sampling
Type: in vivo
Description: Adult guinea pigs were used in this test system. The compounds to be tested were dissolved in aqueous polyvinyl pyrrolidone or in polyethylene glycol 200, and an appropriate amount of the solution was administered by intraperitoneal injection. Various doses of the compound were used, as named in the tables below.
Blood was drawn from the guinea pigs at different times, shown in the tables below, and the samples of blood were centrifuged. Dental wicks were saturated with the blood serum, and were then exposed in Petri dishes to adult stable flies or adult house flies; blow fly larvae were exposed in test tubes. Various species were used in various tests. After 24 hours, the insects were examined, and the number of dead were counted.

[1] = 10 mg./kg. intraperitoneal, sampling at 6 hours
[2] = 10 mg./kg. intraperitoneal, sampling at 24 hours
[3] = 25 mg./kg. intraperitoneal, sampling at 6 hours
[4] = 100 mg./kg. intraperitoneal, sampling at 24 hours
[5] = 25 mg./kg. intraperitoneal, sampling at 2 hours
[6] = 25 mg./kg. intraperitoneal, sampling at 48 hours

Measured: Dead (guinea pig died before its blood was sampled)

O=C(CC(=O)C(F)(F)C(F)(F)C(F)(F)F)c1ccc(Cl)s1 [Example 1, 1-(5-Chlorothien-2-yl)-3-perfluoropropyl-1,3-propanedione]
Dead: 5 mg./kg. intraperitoneal, sampling at 24 hours | [1] | [2] | 10 mg./kg. intraperitoneal, sampling at 48 hours | 25 mg./kg. intraperitoneal, sampling at 4 hours | [3] | 30 mg./kg. intraperitoneal, sampling at 6 hours | 40 mg./kg. intraperitoneal, sampling at 6 hours | 50 mg./kg. intraperitoneal, sampling at 4 hours | 50 mg./kg. intraperitoneal, sampling at 6 hours | 50 mg./kg. intraperitoneal, sampling at 24 hours | [4]

O=C(CC(=O)C(F)(F)C(F)(F)C(F)(F)F)c1cc(Cl)sc1Cl [Example 3, 1-(2,5-Dichlorothien-3-yl)-3-perfluoropropyl-1,3-propanedione]
Dead: [2] | [3] | 25 mg./kg. intraperitoneal, sampling at 24 hours

O=C(CC(=O)C(F)(F)C(F)(F)C(F)(F)F)c1ccc([N+](=O)[O-])cc1.[Na] [Example 4, 1-(4-Nitrophenyl)-3-perfluoropropyl-1,3-propanedione, sodium salt]
Dead: [4]

O=C(CC(=O)C1(F)C(F)(F)C(F)(F)C(F)(F)C(F)(F)C1(F)F)c1ccc(Cl)s1 [Example 5, 1-(5-Chlorothien-2-yl)-3-perfluorocyclo-hexyl-1,3-propanedione]
Dead: 25 mg./kg. intraperitoneal, sampling at 5 hours

O=C(CC(=O)C(F)(F)C(F)(F)C(F)(F)F)c1cc(Cl)c(Cl)s1 [Example 7, l-(4,5-Dichlorothien-2-yl)-3-perfluoropropyl-1,3-propanedione]
Dead: [2]

O=C(CC(=O)C(F)(F)C(F)(F)C(F)(F)F)c1ccc(Cl)cc1 [Example 8, 1-(4-Chlorophenyl)-3-perfluoropropyl-1,3-propanedione]
Dead: 10 mg./kg. intraperitoneal, sampling at 5 hours | [5] | [6] | 50 mg./kg. intraperitoneal, sampling at 2 hours | 100 mg./kg. intraperitoneal, sampling at 2 hours

O=C(CC(=O)C(F)(F)C(F)(F)C(F)(F)F)c1cccc(C(F)(F)F)c1.[Na] [Example 12, 1-Perfluoropropyl-3-(3-trifluoromethylphenyl)-1,3-propanedione, sodium salt]
Dead: [3] | [6]

O=C(CC(=O)C(F)(F)C(F)(F)C(F)(F)F)c1ccc(C(F)(F)F)cc1.[Na] [Example 13, 1-Perfluoropropyl-3-(4-trifluoromethylphenyl)-1,3-propanedione, sodium salt]
Dead: [5]

O=C(CC(=O)C(F)(F)C(F)(F)C(F)(F)F)c1ccc(C(F)(F)F)cc1 [Example 14, 1-Perfluoropropyl-3-(4-trifluoromethylphenyl)-1,3-propanedione]
Dead: 5 mg./kg. intraperitoneal, sampling at 5 hours | 5 mg./kg. intraperitoneal, sampling at 48 hours | [1] | [3]

Reference: patent EP0202903A2, “Control of ectoparasites” (priority 1985, dated 1986)
